The nature of series [1]: River sediment/water fate test (US FDA Guideline 3.11) with 14C-MPM. The following applies: all systems and dosings.
Experimental: A river sediment/water fate test with two different ^14C-MPMs (one carboxyl-^14C-labelled, the other morpholine-^14C-labelled) was commissioned in 1994 by Syntex according to US FDA Guideline 3.11 in compliance with GLP (Yan 1995). Both carboxyl-^14C-labelled and morpholine-^14C-labelled MPM were tested separately for biodegradability in river water and sediment at dosing concentrations of 1 and 5 mg MPM/L, in parallel test set-ups in the dark at 21±1 °C over 64 days. Air was drawn in flow-through systems first through a 2 N KOH vessel to remove natural CO2, then through the test vessel and subsequently through two sequential 2 N KOH traps for ^14CO2 capture. Samples from the latter traps were taken for duplicate ^14CO2 analysis by LSC on days 1, 2, 3, 7, 14, 21, 28, 35, 49 and 64. Test medium samples for HPLC analysis were taken on days 0.01 (15 min after dosing), 1, 3, 7, 14, 21, 35, 49 and 64. Sediment samples were taken at the end for combustion and ^14CO2 analysis.
Series [2] in a line: OECD test guideline 301F ready biodegradability test.
The test system of series [3] is humans. The series can be described thus: Derivation of acceptable daily exposure (ADE). Further details: species or system human. As for the experimental part:
Similarly, potential risk for humans from secondary poisoning is assessed by using the acceptable daily exposure (ADE) value for MPA (T. Pfister, unpublished data), which considers toxicological data as well as human experience and covers all routes of uptake, including sensitive subpopulations, over 365 d/annum, with the combined worst‐case uptake through drinking water and fish. No removal of MPA in drinking water production is assumed, but a default intake of 2 L water and 115 g fish/person and day is assumed (European Commission 2011; Murray‐Smith et al. 2012). This combined uptake is then compared with the ADE.
The ADE was derived based on the available nonclinical and clinical data, with the critical effects identified as 1) immunosuppression and secondary effects thereof and 2) teratogenicity; in addition, the relevance of positive results in genotoxicity tests was assessed (T. Pfister, unpublished data). Based on the NOAEL of 2 mg/kg body weight/d in the 12‐mo oral toxicity study in the rat, an ADE was derived by multiplying this NOAEL by a default body weight of 60 kg for humans and dividing by adjustment factors, namely, 6.2 for extrapolation from rats to humans, 10 for variability between individuals, 1 for study duration of 1 yr for rodents, 5 for severity of systemic toxicity (hematopoiesis, immunotoxicity), and 3 for use of an established NOAEL instead of an NOEL; this derivation results in a first ADE of 0.1 mg MPM/60‐kg person/d. […] The weak clastogenic potential observed at higher doses was considered to be irrelevant at these exposure levels. Because the first ADE was lower than, and therefore also protective of, the second, 0.1 mg MPM/60‐kg person/d was selected as the ADE. Stoichiometrically, this ADE for MPM corresponds to 0.0739 mg MPA/d, which was rounded to 0.075 mg or 75 µg MPA/d. The MTDI for an otter was derived by normalizing the ADE for a 60‐kg human to the otter with a default body mass of 10 kg, resulting in an MTDI of 0.0125 mg or 12.5 µg MPA/10‐kg otter/d.

Details of series [4]: method as in T. Pfister, unpublished data. Particulars: ref T. Pfister, unpublished data, cited from earlier work.
Series [5] deals with mice. Set-up: method as in T. Pfister, unpublished data. Particulars: oral, 104 wk at 25, 75, or 180 mg/kg body weight/d, ref T. Pfister, unpublished data; cited from earlier work.
The test system of series [6] is rats. Set-up: method as in T. Pfister, unpublished data. The following applies: at least 104 wk at 3, 7, or 15 mg/kg body weight/d, ref T. Pfister, unpublished data; cited from earlier work.
In series [7] the test system is rats. Further details: method as in T. Pfister, unpublished data. Particulars: oral, ref T. Pfister, unpublished data; cited from earlier work.
Series [8] relates to rabbits. Set-up: method as in T. Pfister, unpublished data. Particulars: oral, ref T. Pfister, unpublished data; cited from earlier work.
In series [9] the test system is lymphocyte and erythrocyte systems. Set-up: method as in T. Pfister, unpublished data. The following applies: ref T. Pfister, unpublished data; cited from earlier work.
Series [10] has as its system mice with large cell lymphoma. Further details: method as in T. Pfister, unpublished data. The following applies: ref T. Pfister, unpublished data; cited from earlier work.
Details of series [11]: method as in Lee et al. 1990; Shipkova et al. 2005. Particulars: in the liver and intestine; ref Lee et al. 1990; Shipkova et al. 2005; cited from earlier work.
Series [12] deals with rat. Particulars: in vivo, po; cited from earlier work.
In series [13] the test system is rats. The following applies: cited from earlier work.
Series [14] in a line: OECD test guideline 314B activated sludge biodegradation simulation test. From the text:
Mineralization comprises evolved CO2 (detected in the traps) as well as CO2 dissolved in the sludge. The latter was highest at day 2 and decreased afterward, whereas the amount of evolved CO2 increased continuously until the end of the study. […] At no time point was a noteworthy amount of radioactivity (>2% iRR throughout the test period) detected in the liquor after extraction. Radioactivity in the solids extract was highest at day 0 (5.5% iRR) and decreased afterward to 0.3% iRR after 28 d.
Based on this k biodeg and physicochemical properties for MPA, SimpleTreat 4.0 (Struijs 2015) calculated a removal of 12% in STPs, mostly through biodegradation (0.27% in the primary settler and 11.5% in the aeration tank), with a small fraction of 0.13% adsorbed to sludge, in agreement with the OECD test guideline106 (Organisation for Economic Co‐operation and Development 2000) adsorption results mentioned in the previous paragraph (V. Halász‐Laky, unpublished data). […] A high degradation rate is supported by data from Franquet‐Griell et al. (2017b), who measured STP influents and effluents and compared solid phase extraction and macroporous ceramic passive samplers in Spain. […]

Series [15] has as its system D. magna. Further details: method as in FASS 2018. The following applies: OECD 202; ref FASS 2018; cited from earlier work.
Series [16] has as its system Cyprinus carpio. Further details: method as in FASS 2018. The following applies: OECD 203; ref FASS 2018; cited from earlier work.
On the set-up of series [17]: method as in FASS 2018. Particulars: OECD 209; ref FASS 2018; cited from earlier work.

For `COc1c(C)c2c(c(O)c1C/C=C(\C)CCC(=O)OCCN1CCOCC1)C(=O)OC2` [MPM, mycophenolate mofetil], the “time to full primary degradation” value in series [1] is at most 7 days. Moreover, the “inhibition of activated sludge activity” value in series [2] (nominal 100 mg MPM/L) is reported as “no inhibition”. Further, the ready biodegradability result in series [2] (nominal 100 mg/L) is given as “primary degradation by HPLC without oxygen uptake”. Also, the “first ADE (selected as the ADE)” value in [3] (from rat 12‐mo NOAEL) came to 0.1 mg MPM/60‐kg person/d. In series [3] (from rat teratogenicity NOEL), the “second ADE” value turned out to be 0.19 mg MPM/60‐kg person/d. Also, the clastogenicity result in [4] (extended exposure, only at highly cytotoxic dose levels) is listed as “possesses a clastogenic potential”. The “point mutations or primary DNA damage” value in series [4] (presence or absence of metabolic activation) is reported as “did not induce point mutations or primary DNA damage”. The carcinogenicity entry in series [5] and in series [6] was “not carcinogenic” throughout. Besides, the entries for the “no‐observed‐effect level (NOEL) for teratogenic changes” value in [7] and in series [8] were 2 mg/kg body weight/d and 30 mg/kg body weight/d, respectively. In addition, the “in vitro antitumour effects” value in series [9] is given as “in vitro antitumour effects”. For the same compound, the survival times result in [10] is reported as “prolonged survival times”. For the same compound, the hydrolysis of prodrug result in series [11] is “rapidly and fully hydrolyzed to MPA”. For the same compound, the “no‐observed‐adverse‐effect level (NOAEL)” value in [12] is given as 2 mg/kg body weight/d. Also, the “dose causing malformations in the pups in the absence of maternal toxicity” value in series [13] (highest dose, oral, rats, ref T. Pfister, unpublished data) is on record as 4.5 mg/kg body weight/d. In addition, the “NOAEL, female fertility and reproduction study” value in [13] (rat, in vivo, po) is given as 1.5 mg/kg body weight/d. For the same compound, in series [13] (rats, oral, ref T. Pfister, unpublished data), the effect on fertility result is “no effect on fertility”.
For `COc1c(C)c2c(c(O)c1C/C=C(\C)CCC(=O)O)C(=O)OC2` [^14C‐MPA, Mycophenolic acid, [carboxyl‐14C]], the “degradation in activated sludge” value in series [14] is given as above 80%.
With `COc1c(C)c2c(c(O)c1C/C=C(\C)CCC(=O)[O-])C(=O)OC2.[Na+]` [sodium‐MPA], the “acute daphnid EC50” value in series [15] was above 100 µg/mL. The “acute fish 50% lethal concentration (LC50)” value in series [16] is above 100 µg/mL. Moreover, in series [17], the “3‐h EC50, respiration inhibition” value was 2213 µg/mL and the “EC10, respiration inhibition” value was 69 µg/mL.

The record behind these values is publication PMC6856805, “Environmental Risk Assessment for the Active Pharmaceutical Ingredient Mycophenolic Acid in European Surface Waters” (Environmental Toxicology and Chemistry, 2019).
